{"source": "patent EP2951180B1", "about": "“2,6,7,8 SUBSTITUTED PURINES AS HDM2 INHIBITORS” (Merck Sharp & Dohme Corp., priority 2013, dated 2014)", "data": [{"biological_target": "T1, HDM2 (Homo sapiens, UniProt Q00987)", "T1 construct": "Thioredoxin (N); made in house; host or cells: E. coli strain BL21(DE3)Rosetta", "T1 sequence (Q00987 17-125)": "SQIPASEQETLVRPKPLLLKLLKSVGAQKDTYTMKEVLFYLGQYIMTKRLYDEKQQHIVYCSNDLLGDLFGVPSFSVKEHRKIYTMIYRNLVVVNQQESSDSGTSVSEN", "experiment": "HDM2 FRET assay (inhibition of binding of FITC labeled p53-pocket peptide to HDM2)", "settings": "0.5 nM HDM2 (residues 17 to 125), 3nM peptide, two hour incubation at room temperature; read-out: FRET IC50", "how_it_was_run": "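Compounds were tested in 10-point serial dilution against 0.5 nM recombinant HDM2 binding 3 nM fluorescein-labeled p53-pocket peptide. Detection used 0.25 nM terbium cryptate anti-6xHis antibody in PBS buffer containing 0.01% BSA and 0.01% Tween-20.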", "units": {"IC50": "nM"}, "values": [{"smiles": "CCN(c1nc(-c2noc(=O)[nH]2)nc2nc(-c3cc(C(C)C)ccn3)n(C[C@H]3CC[C@H](C)CC3)c12)[C@H](C)C1CCC1", "note": "[Example 15.24, 3-(6-{[(1R)-1-cyclobutylethyl](ethyl)amino}-7-[(trans-4-methylcyclohexyl)methyl]-8-[4-(1-methylethyl)pyridin-2-yl]-7H-purin-2-yl)-1,2,4-oxadiazol-5(4H)-one]", "IC50": 716}, {"smiles": "CC(C)c1cc(-c2nc3nc(-c4noc(=O)[nH]4)nc(N[C@H](C)C4CCC4)c3n2C[C@H]2CC[C@H](C)CC2)[nH]c(=O)c1", "note": "[Example 15.25, 6-[6-{[(1R)-1-cyclobutylethyl]amino}-7-[(trans-4-methylcyclohexyl)methyl]-2-(5-oxo-2,5-dihydro-1,2,4-oxadiazol-3-yl)-7H-purin-8-yl]-4-(1-methylethyl)pyridin-2(1H)-one]", "IC50": 6.74}, {"smiles": "C[C@H]1CC[C@H](Cn2c(N3CCOCC3)nc3nc(-c4noc(=O)[nH]4)nc(-c4cccc(Cl)c4)c32)CC1", "note": "[Example 16.1, 3-(6-(3-chlorophenyl)-7-(((trans)-4-methylcyclohexyl)methyl)-8-morpholino-7H-purin-2-yl)-1,2,4-oxadiazol-5(4H)-one]", "IC50": 71.7}, {"smiles": "C[C@H]1COCCN1c1nc2nc(-c3noc(=O)[nH]3)nc(-c3cccc(Cl)c3)c2n1C[C@H]1CC[C@H](C)CC1", "note": "[Example 16.2, 3-(6-(3-chlorophenyl)-7-(((trans)-4-methylcyclohexyl)methyl)-8-((S)-3-methylmorpholino)-7H-purin-2-yl)-1,2,4-oxadiazol-5(4H)-one]", "IC50": 106}, {"smiles": "Cc1cccc(-c2nc(-c3n[nH]c(=O)o3)nc3nc(N4CCOCC4)n(C[C@H]4CC[C@H](C)CC4)c23)c1", "note": "[Example 16.3, 5-(7-(((trans)-4-methylcyclohexyl)methyl)-8-morpholino-6-(m-tolyl)-7H-purin-2-yl)-1,3,4-oxadiazol-2(3H)-one]", "IC50": 563}, {"smiles": "C[C@H](CO)Nc1nc2nc(-c3noc(=O)[nH]3)nc(-c3cccc(Cl)c3)c2n1C[C@H]1CC[C@H](C)CC1", "note": "[Example 16.4, 3-(6-(3-chlorophenyl)-8-(((R)-1-hydroxypropan-2-yl)amino)-7-(((trans)-4-methylcyclohexyl)methyl)-7H-purin-2-yl)-1,2,4-oxadiazol-5(4H)-one]", "IC50": 29.8}, {"smiles": "C[C@](CO)(Nc1nc2nc(-c3noc(=O)[nH]3)nc(-c3cccc(Cl)c3)c2n1C[C@H]1CC[C@H](C)CC1)c1ccccc1", "note": "[Example 16.5, 3-(6-(3-chlorophenyl)-8-(((S)-1-hydroxy-2-phenylpropan-2-yl)amino)-7-(((trans)-4-methylcyclohexyl)methyl)-7H-purin-2-yl)-1,2,4-oxadiazol-5(4H)-one]", "IC50": 1.59}, {"smiles": "C[C@@H]1COCCN1c1nc2nc(-c3noc(=O)[nH]3)nc(-c3cccc(Cl)c3)c2n1C[C@H]1CC[C@H](C)CC1", "note": "[Example 16.6, 3-(6-(3-chlorophenyl)-7-(((trans)-4-methylcyclohexyl)methyl)-8-((R)-3-methylmorpholino)-7H-purin-2-yl)-1,2,4-oxadiazol-5(4H)-one]", "IC50": 8.05}, {"smiles": "C[C@@H]1COCCN1c1nc2nc(-c3n[nH]c(=O)o3)nc(-c3cccc(Cl)c3)c2n1C[C@H]1CC[C@H](C)CC1", "note": "[Example 16.7, 5-(6-(3-chlorophenyl)-7-(((trans)-4-methylcyclohexyl)methyl)-8-((R)-3-methylmorpholino)-7H-purin-2-yl)-1,3,4-oxadiazol-2(3H)-one]", "IC50": 14.5}, {"smiles": "C[C@H](O)[C@H](Nc1nc2nc(-c3noc(=O)[nH]3)nc(-c3cccc(Cl)c3)c2n1C[C@H]1CC[C@H](C)CC1)c1ccccc1", "note": "[Example 16.8, 3-(6-(3-chlorophenyl)-8-(((1R,2S)-2-hydroxy-1-phenylpropyl)amino)-7-(((trans)-4-methylcyclohexyl)methyl)-7H-purin-2-yl)-1,2,4-oxadiazol-5(4H)-one]", "IC50": 1.49}, {"smiles": "C[C@@H]1OC(=O)N(c2nc3nc(-c4noc(=O)[nH]4)nc(-c4cccc(Cl)c4)c3n2C[C@H]2CC[C@H](C)CC2)[C@@H]1c1ccccc1", "note": "[Example 16.9, 3-(6-(3-chlorophenyl)-8-((4R,5S)-5-methyl-2-oxo-4-phenyloxazolidin-3-yl)-7-(((trans)-4-methylcyclohexyl)methyl)-7H-purin-2-yl)-1,2,4-oxadiazol-5(4H)-one]", "IC50": 3.01}, {"smiles": "C[C@@H]1COCCN1c1nc2nc(-c3noc(=O)[nH]3)nc(-c3cncc(Cl)c3)c2n1C[C@H]1CC[C@H](C)CC1", "note": "[Example 16.10, 3-(6-(5-chloropyridin-3-yl)-7-(((trans)-4-methylcyclohexyl)methyl)-8-((R)-3-methylmorpholino)-7H-purin-2-yl)-1,2,4-oxadiazol-5(4H)-one]", "IC50": 18.1}, {"smiles": "C[C@@H]1COCCN1c1nc2nc(-c3n[nH]c(=O)o3)nc(-c3cncc(Cl)c3)c2n1C[C@H]1CC[C@H](C)CC1", "note": "[Example 16.11, 5-(6-(5-chloropyridin-3-yl)-7-(((trans)-4-methylcyclohexyl)methyl)-8-((R)-3-methylmorpholino)-7H-purin-2-yl)-1,3,4-oxadiazol-2(3H)-one]", "IC50": 27.7}, {"smiles": "C[C@H]1CC[C@H](Cn2c(N3CCOC[C@H]3c3ccccc3)nc3nc(-c4noc(=O)[nH]4)nc(-c4ccccc4)c32)CC1", "note": "[Example 16.12, 3-(7-(((trans)-4-methylcyclohexyl)methyl)-6-phenyl-8-((R)-3-phenylmorpholino)-7H-purin-2-yl)-1,2,4-oxadiazol-5(4H)-one]", "IC50": 10.1}, {"smiles": "CC(C)c1ccnc(-c2nc3nc(C(=O)O)nc(-c4ccc(F)cc4)c3n2C[C@H]2CC[C@H](C)CC2)c1", "note": "[Example 16.13, 6-(4-fluorophenyl)-7-[(trans-4-methylcyclohexyl)methyl]-8-[4-(1-methylethyl)pyridin-2-yl]-7H-purine-2-carboxylic acid]", "IC50": 401}, {"smiles": "Cc1cccc(-c2nc(C(=O)O)nc3nc(-c4cc(C(C)C)ccn4)n(C[C@H]4CC[C@H](C)CC4)c23)c1", "note": "[Example 16.14, 7-[(trans-4-methylcyclohexyl)methyl]-8-[4-(1-methylethyl)pyridin-2-yl]-6-(3-methylphenyl)-7H-purine-2-carboxylic acid]", "IC50": 35.5}, {"smiles": "Cc1cccc(-c2nc(-c3noc(=O)[nH]3)nc3nc(-c4cc(C(C)C)ccn4)n(C[C@H]4CC[C@H](C)CC4)c23)c1", "note": "[Example 16.15, 3-{7-[(trans-4-methylcyclohexyl)methyl]-8-[4-(1-methylethyl)pyridin-2-yl]-6-(3-methylphenyl)-7H-purin-2-yl}-1,2,4-oxadiazol-5(4H)-one]", "IC50": 30}, {"smiles": "CC(C)c1ccnc(-c2nc3nc(-c4noc(=O)[nH]4)nc(-c4cccc(Cl)c4)c3n2C[C@H]2CC[C@H](C)CC2)c1", "note": "[Example 16.16, 3-{6-(3-chlorophenyl)-7-[(trans-4-methylcyclohexyl)methyl]-8-[4-(1-methylethyl)pyridin-2-yl]-7H-purin-2-yl}-1,2,4-oxadiazol-5(4H)-one]", "IC50": 11.4}, {"smiles": "Cc1cccc(-c2nc(-c3noc(=O)[nH]3)nc3nc(N4CCOC[C@H]4c4ccccc4)n(C[C@H]4CC[C@H](C)CC4)c23)c1", "note": "[Example 16.17, 3-{7-[(trans-4-methylcyclohexyl)methyl]-6-(3-methylphenyl)-8-[(3R)-3-phenylmorpholin-4-yl]-7H-purin-2-yl}-1,2,4-oxadiazol-5(4H)-one]", "IC50": 3.96}, {"smiles": "C[C@H]1CC[C@H](Cn2c(N3CCOC[C@H]3c3ccccc3)nc3nc(-c4noc(=O)[nH]4)nc(-c4cccc(Cl)c4)c32)CC1", "note": "[Example 16.18, 3-{6-(3-chlorophenyl)-7-[(trans-4-methylcyclohexyl)methyl]-8-[(3R)-3-phenylmorpholin-4-yl]-7H-purin-2-yl}-1,2,4-oxadiazol-5(4H)-one]", "IC50": 1.27}, {"smiles": "C[C@H]1CC[C@H](Cn2c(N3CCOC[C@H]3c3ccccc3)nc3nc(-c4noc(=O)[nH]4)nc(-c4cc(Cl)cc(Cl)c4)c32)CC1", "note": "[Example 16.19, 3-{6-(3,5-dichlorophenyl)-7-[(trans-4-methylcyclohexyl)methyl]-8-[(3R)-3-phenylmorpholin-4-yl]-7H-purin-2-yl}-1,2,4-oxadiazol-5(4H)-one]", "IC50": 0.995}, {"smiles": "C[C@H]1CC[C@H](Cn2c(N3CCOC[C@H]3c3ccccc3)nc3nc(-c4noc(=O)[nH]4)nc(-c4cc(F)cc(Cl)c4)c32)CC1", "note": "[Example 16.20, 3-{6-(3-chloro-5-fluorophenyl)-7-[(trans-4-methylcyclohexyl)methyl]-8-[(3R)-3-phenylmorpholin-4-yl]-7H-purin-2-yl}-1,2,4-oxadiazol-5(4H)-one]", "IC50": 1.21}, {"smiles": "C[C@H]1CC[C@H](Cn2c(N3CCOC[C@H]3c3ccccc3)nc3nc(-c4n[nH]c(=O)o4)nc(-c4cccc(Cl)c4)c32)CC1", "note": "[Example 16.21, 5-{6-(3-chlorophenyl)-7-[(trans-4-methylcyclohexyl)methyl]-8-[(3R)-3-phenylmorpholin-4-yl]-7H -purin-2-yl}-1,3,4-oxadiazol-2(3H)-one]", "IC50": 2.25}, {"smiles": "C[C@H]1CC[C@H](Cn2c(N3CCOC[C@H]3c3ccccc3)nc3nc(C(=O)O)nc(-c4cccc(Cl)c4)c32)CC1", "note": "[Example 16.22, 6-(3-chlorophenyl)-7-[(trans-4-methylcyclohexyl)methyl]-8-[(3R)-3-phenylmorpholin-4-yl]-7H-purine-2-carboxylic acid]", "IC50": 0.68}, {"smiles": "C[C@H]1CC[C@H](Cn2c(N3CCOC[C@H]3c3ccccc3)nc3nc(-c4noc(=O)[nH]4)nc(-c4cccc(Cl)c4F)c32)CC1", "note": "[Example 16.23, 3-{6-(3-chloro-2-fluorophenyl)-7-[(trans-4-methylcyclohexyl)methyl]-8-[(3R)-3-phenylmorpholin-4-yl]-7H-purin-2-yl}-1,2,4-oxadiazol-5(4H)-one]", "IC50": 1.44}, {"smiles": "C[C@H]1CC[C@H](Cn2c(N3CCOC[C@H]3c3ccccc3)nc3nc(-c4noc(=O)[nH]4)nc(-c4ccc(F)c(Cl)c4)c32)CC1", "note": "[Example 16.24, 3-{6-(3-chloro-4-fluorophenyl)-7-[(trans-4-methylcyclohexyl)methyl]-8-[(3R)-3-phenylmorpholin-4-yl]-7H-purin-2-yl}-1,2,4-oxadiazol-5(4H)-one]", "IC50": 5.62}]}]}
